Reference: patent publication US10487092B2, “Pyrazolopyridinamines as MKNK1 and MKNK2 inhibitors” (BAYER PHARMA AKTIENGESELLSCHAFT, priority 2014, dated 2019)

Target: human full-length MKNK1 (Homo sapiens (Human), UniProt Q9BUB5, T344D)
Experiment: MKNK1 kinase high ATP assay (TR-FRET)
Type: biochemical
Conditions: high ATP (2 mM), 15 min preincubation with enzyme; read-out: MKNK1 IC50
Method: MKNK1 Kinase High ATP Assay
MKNK1-inhibitory activity at high ATP of compounds of the present invention after their preincubation with MKNK1 was quantified employing the TR-FRET-based MKNK1 high ATP assay as described in the following paragraphs.
A recombinant fusion protein of Glutathione-S-Transferase (GST, N-terminally) and human full-length MKNK1 (amino acids 1-424 and T344D of accession number BAA 19885.1), expressed in insect cells using baculovirus expression system and purified via glutathione sepharose affinity chromatography, was purchased from Carna Biosciences (product no 02-145) and used as enzyme. As substrate for the kinase reaction the biotinylated peptide biotin-Ahx-IKKRKLTRRKSLKG (SEQ ID NO: 1, C-terminus in amide form) was used, which can be purchased e.g. from the company Biosyntan (Berlin-Buch, Germany).
For the assay 50 nL of a 100 fold concentrated solution of the test compound in DMSO was pipetted into a black low volume 384 well microtiter plate (Greiner Bio-One, Frickenhausen, Germany), 2 μL of a solution of MKNK1 in aqueous assay buffer [50 mM HEPES pH 7.5, 5 mM MgCl2, 1.0 mM dithiothreitol, 0.005% (v/v) Nonidet-P40 (Sigma)] was added and the mixture was incubated for 15 min at 22° C. to allow pre-binding of the test compounds to the enzyme before the start of the kinase reaction. Then the kinase reaction was started by the addition of 3 μL of a solution of adenosine-tri-phosphate (ATP, 3.3 mM=>final conc. in the 5 μL assay volume is 2 mM) and substrate (0.1 μM=>final conc. in the 5 μL assay volume is 0.06 μM) in assay buffer and the resulting mixture was incubated for a reaction time of 30 min at 22° C. The concentration of MKNK1 was adjusted depending of the activity of the enzyme lot and was chosen appropriate to have the assay in the linear range, typical concentrations were in the range of 0.003 μg/mL. The reaction was stopped by the addition of 5 μL of a solution of TR-FRET detection reagents (5 nM streptavidine-XL665 [Cisbio Bioassays, Codolet, France] and 1 nM anti-ribosomal protein S6 (pSer236)-antibody from Invitrogen [#44921G] and 1 nM LANCE EU-W1024 labeled ProteinG [Perkin-Elmer, product no. AD0071]) in an aqueous EDTA-solution (100 mM EDTA, 0.1% (w/v) bovine serum albumin in 50 mM HEPES pH 7.5).
The resulting mixture was incubated for 1 h at 22° C. to allow the formation of complex between the phosphorylated biotinylated peptide and the detection reagents. Subsequently the amount of phosphorylated substrate was evaluated by measurement of the resonance energy transfer from the Eu-chelate to the streptavidine-XL. Therefore, the fluorescence emissions at 620 nm and 665 nm after excitation at 350 nm were measured in a TR-FRET reader, e.g. a Rubystar (BMG Labtechnologies, Offenburg, Germany) or a Viewlux (Perkin-Elmer). The ratio of the emissions at 665 nm and at […] was taken as the measure for the amount of phosphorylated substrate. The data were normalised (enzyme reaction without inhibitor=0% inhibition, all other assay components but no enzyme=100% inhibition).

human full-length MKNK1, sequence (Q9BUB5 other isoform, or with tags, fused parts or gaps T344D): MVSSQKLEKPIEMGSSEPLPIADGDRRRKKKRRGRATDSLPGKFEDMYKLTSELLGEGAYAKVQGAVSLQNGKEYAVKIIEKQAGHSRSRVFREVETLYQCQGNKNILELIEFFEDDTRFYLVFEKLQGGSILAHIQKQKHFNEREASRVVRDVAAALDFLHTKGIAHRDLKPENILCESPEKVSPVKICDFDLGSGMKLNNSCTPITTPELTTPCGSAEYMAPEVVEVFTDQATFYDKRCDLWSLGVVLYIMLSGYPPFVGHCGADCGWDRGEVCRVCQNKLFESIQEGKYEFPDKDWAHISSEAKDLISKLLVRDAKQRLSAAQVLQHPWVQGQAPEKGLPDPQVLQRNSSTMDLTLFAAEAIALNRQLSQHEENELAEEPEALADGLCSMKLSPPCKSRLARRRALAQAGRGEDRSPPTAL

Compound | IC50 [nM]
COCCN(C)C(=O)[C@H]1CCc2c(sc3ncnc(Nc4cc5ccnn5cc4Cl)c23)C1 [Example 56, (7S)-4-[(6-Chloropyrazolo[1,5-a]pyridin-5-yl)amino]-N-(2-methoxyethyl)-N-methyl-5,6,7,8-tetrahydro[1]benzothieno[2,3-d]pyrimidine-7-carboxamide] | 41
CC(C)N(C)C(=O)[C@H]1CCc2c(sc3ncnc(Nc4cc5ccnn5cc4Cl)c23)C1 [Example 57, (7S)-4-[(6-Chloropyrazolo[1,5-a]pyridin-5-yl)amino]-N-methyl-N-(propan-2-yl)-5,6,7,8-tetrahydro[1]benzothieno[2,3-d]pyrimidine-7-carboxamide] | 12
CN(C)[C@@H]1CCN(C(=O)[C@H]2CCc3c(sc4ncnc(Nc5cc6ccnn6cc5Cl)c34)C2)C1 [Example 58, (7S)-4-[(6-Chloropyrazolo[1,5-a]pyridin-5-yl)amino]-5,6,7,8-tetrahydro[1]benzothieno[2,3-d]pyrimidin-7-yl[(3R)-3-(dimethylamino)pyrrolidin-1-yl]methanone] | 2
CN(C)[C@H]1CCN(C(=O)[C@H]2CCc3c(sc4ncnc(Nc5cc6ccnn6cc5Cl)c34)C2)C1 [Example 59, (7S)-4-[(6-Chloropyrazolo[1,5-a]pyridin-5-yl)amino]-5,6,7,8-tetrahydro[1]benzothieno[2,3-d]pyrimidin-7-yl[(3S)-3-(dimethylamino)pyrrolidin-1-yl]methanone] | 1
O=C([C@H]1CCc2c(sc3ncnc(Nc4cc5ccnn5cc4Cl)c23)C1)N1C[C@H](O)[C@@H](O)C1 [Example 60, (7S)-4-[(6-Chloropyrazolo[1,5-a]pyridin-5-yl)amino]-5,6,7,8-tetrahydro[1]benzothieno[2,3-d]pyrimidin-7-yl[(3S,4S)-3,4-dihydroxypyrrolidin-1-yl]methanone] | 18
CN(C)C1CCN(C(=O)[C@H]2CCc3c(sc4ncnc(Nc5cc6ccnn6cc5Cl)c34)C2)CC1 [Example 61, (7S)-4-[(6-Chloropyrazolo[1,5-a]pyridin-5-yl)amino]-5,6,7,8-tetrahydro[1]benzothieno[2,3-d]pyrimidin-7-yl[4-(dimethylamino)piperidin-1-yl]methanone] | 13
CN(C)CCCN(CCO)C(=O)[C@H]1CCc2c(sc3ncnc(Nc4cc5ccnn5cc4Cl)c23)C1 [Example 63, (7S)4-[(6-Chloropyrazolo[1,5-a]pyridin-5-yl)amino]-N-[3-(dimethylamino)propyl]-N-(2-hydroxyethyl)-5,6,7,8-tetrahydro[1]benzothieno[2,3-d]pyrimidine-7-carboxamide] | 15
C[C@@H]1CN(C(=O)[C@H]2CCc3c(sc4ncnc(Nc5cc6ccnn6cc5Cl)c34)C2)C[C@H](C)O1 [Example 64, (7S)-4-[(6-Chloropyrazolo[1,5-a]pyridin-5-yl)amino]-5,6,7,8-tetrahydro[1]benzothieno[2,3-d]pyrimidin-7-yl[(2R,6S)-2,6-dimethylmorpholin-4-yl]methanone] | 10
CN(C)CCN1CCN(C(=O)[C@H]2CCc3c(sc4ncnc(Nc5cc6ccnn6cc5Cl)c34)C2)CC1 [Example 66, (7S)-4-[(6-Chloropyrazolo[1,5-a]pyridin-5-yl)amino]-5,6,7,8-tetrahydro[1]benzothieno[2,3-d]pyrimidin-7-yl4-[2-(dimethylamino)ethyl]piperazin-1-ylmethanone] | 6
CCN(CCN(C)C)C(=O)[C@H]1CCc2c(sc3ncnc(Nc4cc5ccnn5cc4Cl)c23)C1 [Example 67, (7S)-4-[(6-Chloropyrazolo[1,5-a]pyridin-5-yl)amino]-N-[2-(dimethylamino)ethyl]-N-ethyl-3,5,6,7,8-tetrahydro[1]benzothieno[2,3-d]pyrimidine-7-carboxamide] | 30
O=C([C@H]1CCc2c(sc3ncnc(Nc4cc5ccnn5cc4Cl)c23)C1)N1CCOCC1 [Example 68, (7S)-4-[(6-Chloropyrazolo[1,5-a]pyridin-5-yl)amino]-5,6,7,8-tetrahydro[1]benzothieno[2,3-d]pyrimidin-7-yl(morpholin-4-yl)methanone] | 4
CCN(CCO)C(=O)[C@H]1CCc2c(sc3ncnc(Nc4cc5ccnn5cc4Cl)c23)C1 [Example 69, (7S)-4-[(6-Chloropyrazolo[1,5-a]pyridin-5-yl)amino]-N-ethyl-N-(2-hydroxyethyl)-5,6,7,8-tetrahydro[1]benzothieno[2,3-d]pyrimidine-7-carboxamide] | 6
CCN(CCOC)C(=O)[C@H]1CCc2c(sc3ncnc(Nc4cc5ccnn5cc4Cl)c23)C1 [Example 70, (7S)-4-[(6-Chloropyrazolo[1,5-a]pyridin-5-yl)amino]-N-ethyl-N-(2-methoxyethyl)-5,6,7,8-tetrahydro[1]benzothieno[2,3-d]pyrimidine-7-carboxamide] | 7
COCCN(CCOC)C(=O)[C@H]1CCc2c(sc3ncnc(Nc4cc5ccnn5cc4Cl)c23)C1 [Example 71, (7S)-4-[(6-Chloropyrazolo[1,5-a]pyridin-5-yl)amino]-N,N-bis(2-methoxyethyl)-5,6,7,8-tetrahydro[1]benzothieno[2,3-d]pyrimidine-7-carboxamide] | 12
CN1C[C@@H]2C[C@H]1CN2C(=O)[C@H]1CCc2c(sc3ncnc(Nc4cc5ccnn5cc4Cl)c23)C1 [Example 72, (7S)-4-[(6-Chloropyrazolo[1,5-a]pyridin-5-yl)amino]-5,6,7,8-tetrahydro[1]benzothieno[2,3-d]pyrimidin-7-yl[(1S,4S)-5-methyl-2,5-diazabicyclo[2.2.1]hept-2-yl]methanone] | 14
CN1C[C@H]2C[C@@H]1CN2C(=O)[C@H]1CCc2c(sc3ncnc(Nc4cc5ccnn5cc4Cl)c23)C1 [Example 73, (7S)-4-[(6-Chloropyrazolo[1,5-a]pyridin-5-yl)amino]-5,6,7,8-tetrahydro[1]benzothieno[2,3-d]pyrimidin-7-yl[(1R,4R)-5-methyl-2,5-diazabicyclo[2.2.1]hept-2-yl]methanone] | 4
O=C([C@H]1CCc2c(sc3ncnc(Nc4cc5ccnn5cc4Cl)c23)C1)N1C[C@@H]2C[C@H]1CO2 [Example 74, (7S)-4-[(6-Chloropyrazolo[1,5-a]pyridin-5-yl)amino]-5,6,7,8-tetrahydro[1]benzothieno[2,3-d]pyrimidin-7-yl[(1S,4S)-2-oxa-5-azabicyclo[2.2.1]hept-5-yl]methanone] | 22
O=C([C@H]1CCc2c(sc3ncnc(Nc4cc5ccnn5cc4Cl)c23)C1)N1C[C@H]2C[C@@H]1CO2 [Example 75, (7S)-4-[(6-Chloropyrazolo[1,5-a]pyridin-5-yl)amino]-5,6,7,8-tetrahydro[1]benzothieno[2,3-d]pyrimidin-7-yl[(1R,4R)-2-oxa-5-azabicyclo[2.2.1]hept-5-yl]methanone] | 56
C[C@H]1COCCN1C(=O)[C@H]1CCc2c(sc3ncnc(Nc4cc5ccnn5cc4Cl)c23)C1 [Example 76, (7S)-4-[(6-Chloropyrazolo[1,5-a]pyridin-5-yl)amino]-5,6,7,8-tetrahydro[1]benzothieno[2,3-d]pyrimidin-7-yl[(3S)-3-methylmorpholin-4-yl]methanone] | 7
C[C@@H]1COCCN1C(=O)[C@H]1CCc2c(sc3ncnc(Nc4cc5ccnn5cc4Cl)c23)C1 [Example 77, (7S)-4-[(6-Chloropyrazolo[1,5-a]pyridin-5-yl)amino]-5,6,7,8-tetrahydro[1]benzothieno[2,3-d]pyrimidin-7-yl[(3R)-3-methylmorpholin-4-yl]methanone] | 21
CNC(=O)[C@H]1CCc2c(sc3ncnc(Nc4cc5ccnn5cc4OC)c23)C1 [Example 78, (7S)-4-[(6-Methoxypyrazolo[1,5-a]pyridin-5-yl)amino]-N-methyl-5,6,7,8-tetrahydro[1]benzothieno[2,3-d]pyrimidine-7-carboxamide] | 5
COc1cn2nccc2cc1Nc1ncnc2sc3c(c12)CC[C@H](C(=O)NCC(F)F)C3 [Example 79, (7S)—N-(2,2-Difluoroethyl)-4-[(6-methoxypyrazolo[1,5-a]pyridin-5-yl)amino]-5,6,7,8-tetrahydro[1]benzothieno[2,3-d]pyrimidine-7-carboxamide] | 3
